Here are results for 16 molecules from patent publication US11597724B2, “Herbicidally active 3-phenylisoxazoline-5-carboxamides of tetrahydro and dihydrofuran carboxylic acids and esters” (Bayer Aktiengesellschaft, priority 2017, dated 2023).

What all share (assay type): in vivo
The test system of one test is Alopecurus myosuroides. Briefly: Pre-emergence herbicidal activity against ALOMY. The settings on record: dosage 80 g/ha, scored visually after about 3 weeks vs untreated controls (100% = plants have died, 0% = like control plants); for pest or weed control at 80 g/ha: Alopecurus myosuroides, 504 h. From the text: 1. Pre-Emergence Herbicidal Action and Crop Plant Compatibility Seeds of monocotyledonous and dicotyledonous weed plants and crop plants are placed in plastic or wood fiber pots and covered with soil. The compounds of the invention, formulated in the form of wettable powders (WP) or as emulsion concentrates (EC), are then applied onto the surface of the covering soil as aqueous suspension or emulsion with addition of 0.5% additive at a water application rate of 600 l/ha (converted). After the treatment, the pots are placed in a greenhouse and kept under good growth conditions for the trial plants. After about 3 weeks, the effect of the preparations is scored visually in comparison with untreated controls as percentages. For example, 100% activity=the plants have died, 0% activity=like control plants. ABUTH: Abutilon theophrasti ALOMY: Alopecurus myosuroides

The next test has as its system Stellaria media. Briefly: Post-emergence herbicidal activity against STEME. The settings on record: dosage 320 g/ha, rated about 3 weeks after treatment; for pest or weed control at 320 g/ha: Stellaria media, 504 h. Summed up:
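Greenhouse plants treated at one-leaf stage, 2–3 weeks after sowing, by spraying WP or EC formulations with 0.5% additive at 600 l/ha water. Visual rating about 3 weeks later versus untreated controls (100% = plants dead, 0% = like controls).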

A further test deals with Viola tricolor. Briefly: Post-emergence herbicidal activity against VIOTR. The note with it: dosage 320 g/ha, rated about 3 weeks after treatment; for pest or weed control at 320 g/ha: Viola tricolor, 504 h. Summed up:
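Greenhouse plants in sandy loam treated at one-leaf stage, 2 to 3 weeks after sowing, by spraying WP or EC formulations with 0.5% additive at 600 l/ha water. Activity rated visually after about 3 weeks versus untreated controls, 100% = plants dead, 0% = like control.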

The nature of test [1]: Post-emergence treatment, summary over harmful plants. The note with it: 504 h, application rate of 0.32 kg of active substance or less per hectare, read-out: herbicidal action, post-emergence treatment (very good herbicidal activity). Summed up: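 Greenhouse-grown weeds and crops were sprayed at the one-leaf stage (2–3 weeks post-sowing) with WP or EC formulations plus 0.5% additive at 600 l/ha water. About 3 weeks later, activity was visually rated against untreated controls (100% = dead plants, 0% = like control).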

In the next test the test system is Abutilon theophrasti. Description: Post-emergence herbicidal activity against ABUTH. The settings on record: dosage 320 g/ha, rated about 3 weeks after treatment; for pest or weed control at 320 g/ha: Abutilon theophrasti, 504 h. Summed up: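 Greenhouse-grown plants treated at one-leaf stage, 2 to 3 weeks after sowing, with WP or EC formulations sprayed as aqueous suspension/emulsion plus 0.5% additive at 600 l/ha. Activity rated visually about 3 weeks later versus untreated controls (100% = plants dead, 0% = like control).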

The test system of a further test is Amaranthus retroflexus. Description: Post-emergence herbicidal activity against AMARE. The note with it: dosage 320 g/ha, rated about 3 weeks after treatment; for pest or weed control at 320 g/ha: Amaranthus retroflexus, 504 h. The method, boiled down: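 Greenhouse pots of sandy loam; plants sprayed at one-leaf stage, 2 to 3 weeks after sowing, with WP or EC formulations in water plus 0.5% additive at 600 l/ha. Activity rated visually after about 3 weeks against untreated controls (100% = plants dead, 0% = like control).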

In the case of `COC(=O)C1COCC1NC(=O)[C@@]1(C)CC(c2cc(F)cc(F)c2)=NO1` (stereo partly drawn) [I-28, methyl 4-[[(5R)-3-(3,5-difluorophenyl)-5-methyl-4H-isoxazole-5-carbonyl]amino]tetrahydrofuran-3-carboxylate], in the test with Alopecurus myosuroides, the pest or weed control at 80 g/ha worked out at 100%. The pest or weed control at 320 g/ha in the test on Stellaria media was 80%; in the test on Viola tricolor, 80%; in test [1], 80 to 100%; in the test with Abutilon theophrasti, 80%; with Amaranthus retroflexus it was 80%.
In the case of `CC(C)OC(=O)[C@H]1C[C@@H](NC(=O)C2(C)CC(c3cccc(F)c3)=NO2)CO1` (mixture of isomers) [I-32, isopropyl cis-4-[[(5RS)-3-(3-fluorophenyl)-5-methyl-4H-isoxazole-5-carbonyl]amino]tetrahydrofuran-2-carboxylate], the pest or weed control at 80 g/ha in the test with Alopecurus myosuroides was determined as 100%. The pest or weed control at 320 g/ha in the test on Stellaria media is 90%; in test [1], 80 to 100%; with Abutilon theophrasti it was 80%; in the test on Amaranthus retroflexus, 80%.
`COC(=O)C1COCC1NC(=O)C1(C)CC(c2cc(F)cc(F)c2)=NO1` (centres unmarked) [I-19, methyl 4-[[3-(3,5-difluorophenyl)-5-methyl-4H-isoxazole-5-carbonyl]amino]tetrahydrofuran-3-carboxylate] showed a pest or weed control at 80 g/ha in the test with Alopecurus myosuroides of 90%. Moreover, the pest or weed control at 320 g/ha was 90% in the test on Stellaria media; 80% in the test with Viola tricolor; 80 to 100% in test [1]; 80% in the test on Abutilon theophrasti; 90% with Amaranthus retroflexus.
In the test on Alopecurus myosuroides, `C=C[C@]1(C(=O)N[C@H]2CO[C@@H](C(=O)OC(C)(C)C)C2)CC(c2cc(F)cc(F)c2)=NO1` (mixture of isomers) [I-38, tert-butyl cis-4-[[(5S)-3-(3,5-difluorophenyl)-5-vinyl-4H-isoxazole-5-carbonyl]amino]tetrahydrofuran-2-carboxylate] came in with a pest or weed control at 80 g/ha of 100%. Moreover, the pest or weed control at 320 g/ha with Stellaria media was 90%; with Viola tricolor, 80%; in test [1], 80 to 100%; with Abutilon theophrasti it was 80%; in the test with Amaranthus retroflexus, 100%.
Take `CCOC(=O)C1CC(NC(=O)C2(C)CC(c3cc(F)cc(F)c3)=NO2)CO1` (mixture of isomers) [I-43]: the “Pre-emergence herbicidal activity against ALOMY in %” value with Alopecurus myosuroides worked out at 100%. Moreover, the “Post-emergence herbicidal activity against STEME in %” value in the test with Stellaria media is 100%. Moreover, the “Post-emergence herbicidal activity against VIOTR in %” value in the test with Viola tricolor is recorded as 90%. For the same molecule, the “Post-emergence herbicidal activity against ABUTH in %” value with Abutilon theophrasti is on record as 80%. The “Post-emergence herbicidal activity against AMARE in %” value in the test with Amaranthus retroflexus stood at 80%.
Consider `CC1(C(=O)NC2COC(C(=O)OCc3ccccc3)C2)CC(c2cc(F)cc(F)c2)=NO1` (mixture of isomers) [I-45], for which the “Pre-emergence herbicidal activity against ALOMY in %” value in the test on Alopecurus myosuroides is listed as 100%. In the test on Stellaria media, the “Post-emergence herbicidal activity against STEME in %” value was 90%. Besides, in the test on Viola tricolor, the “Post-emergence herbicidal activity against VIOTR in %” value is 90%. Also, the “Post-emergence herbicidal activity against ABUTH in %” value in the test with Abutilon theophrasti was found to be 80%. Moreover, the “Post-emergence herbicidal activity against AMARE in %” value in the test on Amaranthus retroflexus is recorded as 80%.
Regarding `C=C[C@]1(C(=O)N[C@H]2CO[C@@H](C(=O)OC)C2)CC(c2cc(F)cc(F)c2)=NO1` (single isomer, unassigned) [I-11], the “Pre-emergence herbicidal activity against ALOMY in %” value in the test on Alopecurus myosuroides was 100%. Further, the pest or weed control at 320 g/ha in the test with Stellaria media, in the test on Viola tricolor, in the test on Abutilon theophrasti and in the test with Amaranthus retroflexus was 90% each time.
On to `COC(=O)C1CC(NC(=O)C2(C)CC(c3cc(F)cc(F)c3)=NO2)CO1` (mixture of isomers) [I-48], for which, in the test with Alopecurus myosuroides, the “Pre-emergence herbicidal activity against ALOMY in %” value stood at 100%. The “Post-emergence herbicidal activity against STEME in %” value in the test with Stellaria media stood at 90%. Also, the “Post-emergence herbicidal activity against VIOTR in %” value with Viola tricolor came to 80%. Moreover, the “Post-emergence herbicidal activity against ABUTH in %” value in the test with Abutilon theophrasti was found to be 80%. Besides, in the test with Amaranthus retroflexus, the “Post-emergence herbicidal activity against AMARE in %” value came out at 80%.
In the test with Alopecurus myosuroides, `C=C[C@]1(C(=O)NC2COCC2C(=O)OC)CC(c2cc(F)cc(F)c2)=NO1` (stereo partly drawn) [I-26, methyl 4-[[(5S)-3-(3,5-difluorophenyl)-5-vinyl-4H-isoxazole-5-carbonyl]amino]tetrahydrofuran-3-carboxylate] displayed a pest or weed control at 80 g/ha of 100%. Besides, the pest or weed control at 320 g/ha with Stellaria media was 90%; with Viola tricolor, 80%; in test [1], 80 to 100%; with Amaranthus retroflexus, 80%.
As to `CC(C)(C)OC(=O)C1CC(NC(=O)C2(C)CC(c3cc(F)cc(F)c3)=NO2)CO1` (mixture of isomers) [I-42], the “Pre-emergence herbicidal activity against ALOMY in %” value in the test on Alopecurus myosuroides amounted to 100%. Also, the “Post-emergence herbicidal activity against STEME in %” value with Stellaria media amounted to 90%. The “Post-emergence herbicidal activity against VIOTR in %” value with Viola tricolor is on record as 90%. Also, the “Post-emergence herbicidal activity against ABUTH in %” value in the test on Abutilon theophrasti is listed as 80%. In addition, the “Post-emergence herbicidal activity against AMARE in %” value with Amaranthus retroflexus was 80%.
`COC(=O)[C@H]1C[C@@H](NC(=O)C2(C(F)(F)F)CC(c3cc(F)cc(F)c3)=NO2)CO1` (relative stereo) [I-06, methyl cis-4-[[3-(3,5-difluorophenyl)-5-(trifluoromethyl)-4H-isoxazole-5-carbonyl]amino]tetrahydrofuran-2-carboxylate]: the pest or weed control at 80 g/ha in the test with Alopecurus myosuroides came to 80%. Also, the pest or weed control at 320 g/ha was 80% in the test on Stellaria media, 90% in the test on Viola tricolor, 80 to 100% in test [1] and 80% with Amaranthus retroflexus.
As for `CC1(C(=O)NC2COC(C(=O)O)C2)CC(c2cc(F)cc(F)c2)=NO1` (mixture of isomers) [I-41], the “Pre-emergence herbicidal activity against ALOMY in %” value with Alopecurus myosuroides was 100%. Further, the “Post-emergence herbicidal activity against STEME in %” value with Stellaria media is given as 90%. Besides, the “Post-emergence herbicidal activity against VIOTR in %” value with Viola tricolor came to 80%. For the same molecule, the “Post-emergence herbicidal activity against ABUTH in %” value in the test on Abutilon theophrasti is on record as 80%. Moreover, the “Post-emergence herbicidal activity against AMARE in %” value with Amaranthus retroflexus amounted to 100%.
Regarding `CC(C)OC(=O)C1CC(NC(=O)C2(C)CC(c3cc(F)cc(F)c3)=NO2)CO1` (centres unmarked) [I-44], the “Pre-emergence herbicidal activity against ALOMY in %” value in the test on Alopecurus myosuroides was 100%. Further, the “Post-emergence herbicidal activity against STEME in %” value in the test with Stellaria media was determined as 90%. Further, in the test with Viola tricolor, the “Post-emergence herbicidal activity against VIOTR in %” value is reported as 90%. For the same molecule, the “Post-emergence herbicidal activity against ABUTH in %” value with Abutilon theophrasti came out at 80%. Moreover, the “Post-emergence herbicidal activity against AMARE in %” value in the test with Amaranthus retroflexus was 80%.
The molecule `CC1(C(=O)N[C@H]2CO[C@@H](C(=O)OCc3ccccc3)C2)CC(c2cccc(F)c2)=NO1` (mixture of isomers) [I-34, benzyl cis-4-[[(5RS)-3-(3-fluorophenyl)-5-methyl-4H-isoxazole-5-carbonyl]amino]tetrahydrofuran-2-carboxylate] returned a pest or weed control at 80 g/ha in the test with Alopecurus myosuroides of 100%. Moreover, the pest or weed control at 320 g/ha with Stellaria media is 90%; in test [1] it was 80 to 100%; in the test with Abutilon theophrasti it was 80%; in the test with Amaranthus retroflexus, 80%.
On to `C=CC1(C(=O)N[C@H]2CO[C@@H](C(=O)O)C2)CC(c2cc(F)cc(F)c2)=NO1` (relative stereo) [I-21, cis-4-[[3-(3,5-difluorophenyl)-5-vinyl-4H-isoxazole-5-carbonyl]amino]tetrahydrofuran-2-carboxylic acid], for which the pest or weed control at 80 g/ha in the test with Alopecurus myosuroides is 100%. Also, the pest or weed control at 320 g/ha with Stellaria media is 80%; with Viola tricolor, 80%; in test [1], 80 to 100%; with Amaranthus retroflexus, 100%.
`COC(=O)C1COCC1NC(=O)C1(OC)CC(c2cc(Cl)cc(Cl)c2)=NO1` (centres unmarked) [I-29, methyl 4-[[3-(3,5-dichlorophenyl)-5-methoxy-4H-isoxazole-5-carbonyl]amino]tetrahydrofuran-3-carboxylate] showed a pest or weed control at 80 g/ha in the test with Alopecurus myosuroides of 90%. For the same molecule, the pest or weed control at 320 g/ha in the test with Stellaria media was 80%; in the test with Viola tricolor, 80%; in test [1] it was 80 to 100%; with Abutilon theophrasti, 80%.
